Columns and labels:
Assay type in all cases: cell-based
[1] = tested on: HL60 human cells; experiment: Toxin detection: lycopene Raman peak in human serum, trypticase soy broth and HL60 cells; details: 4 μM, FIG. 24, 25
From the text: FIG. 24 depicts the results of one toxin detection experiment. A control sample comprising human serum (centrifuged from the blood collected from a healthy volunteer) was combined with trypticase soy broth and HL60 human cells. […] FIG. 25 plots the normalized intensity for the 1516 cm^−1 peak as a function of time for the rhizoxin containing sample.

[2] = tested on: methicillin resistant S. aureus (MRSA); experiment: Raman marker peak height versus time in serum with MRSA (FIG. 6); details: representative traces 32 and 34, FIG. 6
From the text: As described above, if the iron sequestration process is monitored via Raman spectroscopy, then the test involves the collection of a series of Raman spectra over time. A hypothetical depiction of this collection for a non-iron marker is depicted in FIG. 5. The individual Raman spectra comprise one or more peaks such as […], and 23 that, in the case of iron sequestration, are ascribed either to Fe-Tr (21 and 22) or to the apo-Tr and/or serum lipoproteins (23). The peak heights from one of the Fe-Tr peaks (for instance, 22) are monitored over time, as depicted in FIG. 5. If viable pathogens are present, and are sequestering iron to afford Fe-Tr, then the iron-transferrin peaks decrease over time, as depicted by traces 33 and 34 in FIG. 6. On the other hand, if viable pathogens are not present, or if viable pathogens are present in the assay together with an effective antimicrobial agent, then the peak heights are nearly invariant with time.
With reference to FIGS. 5 and 6, if the lycopene consumption is monitored via Raman spectroscopy as an indicator of metabolic activity, then the test involves the collection of a series of Raman spectra over time. A representative depiction of this collection is depicted in FIG. 5. […]

[3] = tested on: S. aureus; experiment: Lycopene Raman peak (1516 cm^-1) slope versus time in inoculated serum, MIC estimate; details: S. aureus 10^5 cfu/mL; vancomycin 1, 5 and 20 μg/mL; FIG. 17
Method: FIGS. 17 & 18 illustrate the method by which a marker can be used to estimate the minimum inhibitory concentration MIC. FIG. 17 illustrates the Raman peak height at 1516 cm^−1 (which has been ascribed to lycopene) as a function of time for several samples. The samples include a serum sample that has been artificially inoculated with S. aureus to a concentration of 10^5 cfu/mL, and additional samples that also contain various concentrations of vancomycin (1, 5 and 20 μg/mL) as indicated in the legend.
FIG. 18 plots the slope of all the traces in FIG. 17, as a function of added vancomycin concentration. The dashed horizontal line corresponds to the slope of the sample without any added vancomycin, and the 3 data points correspond to vancomycin concentrations of 1, 5 and 20 μg/mL. The solid black line is a logarithmic fit of the 3 data points, and the MIC corresponds to the point at which the solid black line intersects the dashed line.

Row | SMILES | lycopene peak height (1516 cm^-1) over time [1] | effectiveness of dose by peak height versus time trace [2] | slope of lycopene 1516 cm^-1 peak intensity versus time [3]
1 | CO[C@@H](/C(C)=C/C=C/C(C)=C/c1coc(C)n1)[C@@H](C)[C@@H]1C[C@H](O)[C@@]2(C)O[C@@H]2/C=C/[C@@H](C)[C@H]2C[C@H](CC(=O)O2)C[C@@H]2O[C@H]2C(=O)O1 [rhizoxin] | increases significantly at first, followed by a steady decline |  | 
2 | CC1(C)S[C@@H]2[C@H](NC(=O)[C@H](N)c3ccccc3)C(=O)N2[C@H]1C(=O)O [ampicillin] |  | ineffective dose | 
3 | CN[C@H](CC(C)C)C(=O)N[C@H]1C(=O)N[C@@H](CC(N)=O)C(=O)N[C@H]2C(=O)N[C@H]3C(=O)N[C@H](C(=O)N[C@H](C(=O)O)c4cc(O)cc(O)c4-c4cc3ccc4O)[C@H](O)c3ccc(c(Cl)c3)Oc3cc2cc(c3O[C@@H]2O[C@H](CO)[C@@H](O)[C@H](O)[C@H]2O[C@H]2C[C@](C)(N)[C@H](O)[C@H](C)O2)Oc2ccc(cc2Cl)[C@H]1O [vancomycin] |  | effective dose | slope progressively decreases as more vancomycin is added

Reference: patent US20130052636A1, “RAPID DETECTION OF METABOLIC ACTIVITY” (SPECTRAL PLATFORMS, INC., priority 2011, published 2013)
